In patent US9505728B2, “Triazolone compounds and uses thereof” (INCEPTION 2, INC., priority 2012, dated 2016):

These compounds were tested against T1, Human PPARα (Homo sapiens, UniProt Q07869) (assay: Human PPARα Reporter Assay (luciferase)). Conditions: human PPARα reporter cells, overnight incubation, antagonism; read-out: Luciferase IC50.
T1 construct: host or cells: proprietary non-human mammalian cells
T1 sequence (Q07869 1-468): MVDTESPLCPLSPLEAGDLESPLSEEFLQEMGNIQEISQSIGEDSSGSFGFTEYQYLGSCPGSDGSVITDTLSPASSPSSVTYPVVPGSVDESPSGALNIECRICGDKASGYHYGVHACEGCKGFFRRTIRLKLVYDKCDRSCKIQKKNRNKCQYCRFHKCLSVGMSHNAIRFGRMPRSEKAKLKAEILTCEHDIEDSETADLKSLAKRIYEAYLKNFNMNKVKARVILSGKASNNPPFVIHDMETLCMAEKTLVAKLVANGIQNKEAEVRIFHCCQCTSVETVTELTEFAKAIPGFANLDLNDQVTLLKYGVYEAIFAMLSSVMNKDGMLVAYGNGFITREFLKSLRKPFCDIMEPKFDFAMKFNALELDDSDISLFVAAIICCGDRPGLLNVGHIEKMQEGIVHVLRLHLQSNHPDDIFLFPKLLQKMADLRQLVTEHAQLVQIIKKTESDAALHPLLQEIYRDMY
Format: cell-based
Method: Human PPARα Reporter Assay
The screening of test compounds for agonist or antagonist activities against human PPARα receptors was performed using a commercial kit, Human PPARα Reporter Assay System (Indigo Biosciences, Cat. #IB00111).
This nuclear receptor assay system utilizes proprietary non-human mammalian cells engineered to provide constitutive, high-level expression of Human PPARα. Because these cells incorporate a PPARα-responsive luciferase reporter gene, quantifying expressed luciferase activity provides a sensitive surrogate measure of PPARα activity in the treated cells. The primary application of this reporter assay system is in the screening of test samples to quantify any functional activity, either agonist or antagonist, that they may exert against human PPARα.
Briefly, reporter cells are dispensed into wells of the assay plate and then immediately dosed with test compounds. Following an overnight incubation, the treatment media is discarded and Luciferase Detection Reagent (LDR) is added. The intensity of light emission from the ensuing luciferase reaction provides a sensitive measure that is directly proportional to the relative level of PPARα activation in the reporter cells.
An IC50 of 1.19 µM was found for CCn1c(CCCc2ccc(-c3cccc(-c4nnn[nH]4)c3)cc2)nn(Cc2ccc(C(C)(C)C)cc2)c1=O [Example 29, 3-(3-(3′-(1H-Tetrazol-5-yl)-[1,1′-biphenyl]-4-yl)propyl)-1-(4-(tert-butyl)benzyl)-4-ethyl-1H-1,2,4-triazol-5(4H)-one] in this work. An IC50 of 1.28 µM was found for CCn1c(CC2CC2c2ccc(-c3cccc(CC(=O)O)c3)cc2)nn(Cc2ccc(C(C)(C)C)cc2)c1=O (stereo not shown) [Example 30, 2-(4′-(2-((1-(4-(tert-butyl)benzyl)-4-ethyl-5-oxo-4,5-dihydro-1H-1,2,4-triazol-3-yl)methyl)cyclopropyl)-[1,1′-biphenyl]-3-yl)acetic acid] in this work. An IC50 of 1.96 µM was found for CC(C)n1c(CCCc2ccc(-c3cccc(CC(=O)O)c3)cc2)nn(Cc2ccc(C(C)(C)C)cc2)c1=O [Example 31, 2-(4′-(3-(1-(4-(tert-Butyl)benzyl)-4-isopropyl-5-oxo-4,5-dihydro-1H-1,2,4-triazol-3-yl)propyl)-[1,1′-biphenyl]-3-yl)acetic acid] in this work. An IC50 of 2.99 µM was found for CC(C)(C)c1ccc(Cn2nc(CCCc3ccc(-c4cccc(CC(=O)O)c4)cc3)n(-c3ccccc3)c2=O)cc1 [Example 32, 2-(4′-(3-(1-(4-(tert-Butyl)benzyl)-5-oxo-4-phenyl-4,5-dihydro-1H-1,2,4-triazol-3-yl)propyl)-[1,1′-biphenyl]-3-yl)acetic acid] in this work. An IC50 of 0.427 µM was found for CCn1c(CCCc2ccc(-c3ccc(F)c(CC(=O)O)c3)cc2)nn(Cc2ccc(C(C)(C)C)cc2)c1=O [Example 33, 2-(4′-(3-(1-(4-(tert-Butyl)benzyl)-4-ethyl-5-oxo-4,5-dihydro-1H-1,2,4-triazol-3-yl)propyl)-4-fluoro-[1,1′-biphenyl]-3-yl)acetic acid] in this work. An IC50 of 1.45 µM was found for CCn1c(CCCc2ccc(-c3cccc(/C=C/C(=O)O)c3)cc2)nn(Cc2ccc(C(C)(C)C)cc2)c1=O [Example 34, 3-(4′-(3-(1-(4-(tert-Butyl)benzyl)-4-ethyl-5-oxo-4,5-dihydro-1H-1,2,4-triazol-3-yl)propyl)-[1,1′-biphenyl]-3-yl)acrylic acid] in this work. An IC50 of 1.12 µM was found for CCn1c(CCCc2ccc(-c3cccc(C4CC4C(=O)O)c3)cc2)nn(Cc2ccc(C(C)(C)C)cc2)c1=O (stereo not shown) [Example 35, 2-(4′-(3-(1-(4-(tert-Butyl)benzyl)-4-ethyl-5-oxo-4,5-dihydro-1H-1,2,4-triazol-3-yl)propyl)-[1,1′-biphenyl]-3-yl)cyclopropanecarboxylic acid] in this work. An IC50 of 2.76 µM was found for CCn1c(CCCc2ccc(-c3cccc(CCC(=O)O)c3)cc2)nn(Cc2ccc(C(C)(C)C)cc2)c1=O [Example 36, 3-(4′-(3-(1-(4-(tert-Butyl)benzyl)-4-ethyl-5-oxo-4,5-dihydro-1H-1,2,4-triazol-3-yl)propyl)-[1,1′-biphenyl]-3-yl)propanoic acid] in this work. An IC50 of 1.96 µM was found for CCn1c(CCCc2ccc(-c3cccc(CC(=O)O)c3)cc2)nn(Cc2ccc(Br)cc2)c1=O [Example 37, 2-(4′-(3-(1-(4-Bromobenzyl)-4-ethyl-5-oxo-4,5-dihydro-1H-1,2,4-triazol-3-yl)propyl)-[1,1′-biphenyl]-3-yl)acetic acid] in this work. An IC50 of 0.01 µM was found for CCOc1ccc(-c2ccc(CCCc3nn(Cc4ccc(C(C)(C)C)cc4)c(=O)n3CC)cc2)cc1CC(=O)O [Example 38, 2-(4′-(3-(1-(4-(tert-Butyl)benzyl)-4-ethyl-5-oxo-4,5-dihydro-1H-1,2,4-triazol-3-yl)propyl)-4-ethoxy-[1,1′-biphenyl]-3-yl)acetic acid] in this work. An IC50 of 0.707 µM was found for CCn1c(CCCc2ccc(-c3csc(CC(=O)O)c3)cc2)nn(Cc2ccc(C(C)(C)C)cc2)c1=O [Example 39, 2-(4-(4-(3-(1-(4-(tert-Butyl)benzyl)-4-ethyl-5-oxo-4,5-dihydro-1H-1,2,4-triazol-3-yl)propyl)phenyl)thiophen-2-yl)acetic acid] in this work. An IC50 of 0.408 µM was found for CCn1c(CCCc2ccc(-c3cc(NS(C)(=O)=O)ccn3)cc2)nn(Cc2ccc(C(C)(C)C)cc2)c1=O [Example 40, 1-{[4-(tert-Butyl)phenyl]methyl}-4-ethyl-3-[3-(4-{4-[(methylsulfonyl)amino](2-pyridyl)}phenyl)propyl]-1,2,4-triazolin-5-one] in this work. An IC50 of 0.51 µM was found for CCn1c(CCCc2ccc(-c3cc(C(=O)O)cc(C(F)(F)F)c3)cc2)nn(Cc2ccc(C(C)(C)C)cc2)c1=O [Example 41, 4′-(3-(1-(4-(tert-Butyl)benzyl)-4-ethyl-5-oxo-4,5-dihydro-1H-1,2,4-triazol-3-yl)propyl)-5-(trifluoromethyl)-[1,1′-biphenyl]-3-carboxylic acid] in this work. An IC50 of 0.488 µM was found for CCn1c(CCCc2ccc(-c3cccc(NS(=O)(=O)C4CC4)n3)cc2)nn(Cc2ccc(C(C)(C)C)cc2)c1=O [Example 42, 1-{[4-(tert-Butyl)phenyl]methyl}-3-[3-(4-{6-[(cyclopropylsulfonyl)amino](2-pyridyl)}phenyl)propyl]-4-ethyl-1,2,4-triazolin-5-one] in this work. An IC50 of 0.898 µM was found for CCn1c(CCCc2ccc(-c3ccc(CC(=O)O)nc3)cc2)nn(Cc2ccc(C(C)(C)C)cc2)c1=O [Example 43, 2-(5-{4-[3-(1-{[4-(tert-Butyl)phenyl]methyl}-4-ethyl-5-oxo-1,2,4-triazolin-3-yl)propyl]phenyl}-2-pyridyl)acetic acid] in this work. An IC50 of 0.652 µM was found for CCn1c(CCCc2ccc(-c3cccc(C(C)C(=O)O)c3)cc2)nn(Cc2ccc(C(C)(C)C)cc2)c1=O (stereo not shown) [Example 44, 2-(3-{4-[3-(1-{[4-(tert-Butyl)phenyl]methyl}-4-ethyl-5-oxo-1,2,4-triazolin-3-yl)propyl]phenyl}phenyl)propanoic acid] in this work. An IC50 of 0.306 µM was found for CCn1c(CCCc2ccc(-c3cc(CC(=O)O)ccn3)cc2)nn(Cc2ccc(C(C)(C)C)cc2)c1=O [Example 45, 2-(2-{4-[3-(1-{[4-(tert-Butyl)phenyl]methyl}-4-ethyl-5-oxo-1,2,4-triazolin-3-yl)propyl]phenyl}-4-pyridyl)acetic acid] in this work. An IC50 of 0.699 µM was found for CCC(C(=O)O)c1cccc(-c2ccc(CCCc3nn(Cc4ccc(C(C)(C)C)cc4)c(=O)n3CC)cc2)c1 (stereo not shown) [Example 46, 2-(3-{4-[3-(1-{[4-(tert-Butyl)phenyl]methyl}-4-ethyl-5-oxo-1,2,4-triazolin-3-yl)propyl]phenyl}phenyl)butanoic acid] in this work. An IC50 of 0.685 µM was found for CCn1c(CCCc2ccc(-c3cccc(C(Cc4ccccc4)C(=O)O)c3)cc2)nn(Cc2ccc(C(C)(C)C)cc2)c1=O (stereo not shown) [Example 47, 2-(3-{4-[3-(1-{[4-(tert-Butyl)phenyl]methyl}-4-ethyl-5-oxo(1,2,4-triazolin-3-yl))propyl]phenyl}phenyl)-3-phenylpropanoic acid] in this work. An IC50 of 0.426 µM was found for CCn1c(CCCc2ccc(-c3cc(C(F)(F)F)cc(CC(=O)O)n3)cc2)nn(Cc2ccc(C(C)(C)C)cc2)c1=O [Example 48, 2-(6-{4-[3-(1-{[4-(tert-Butyl)phenyl]methyl}-4-ethyl-5-oxo(1,2,4-triazolin-3-yl))propyl]phenyl}-4-(trifluoromethyl)-2-pyridyl)acetic acid] in this work. An IC50 of 0.069 µM was found for CCn1c(CCCc2ccc(-c3ccc(OCC4CC4)c(CC(=O)O)c3)cc2)nn(Cc2ccc(C(C)(C)C)cc2)c1=O [Example 49, 2-(4′-(3-(1-(4-(tert-Butyl)benzyl)-4-ethyl-5-oxo-4,5-dihydro-1H-1,2,4-triazol-3-yl)propyl)-4-(cyclopropylmethoxy)-[1,1′-biphenyl]-3-yl)acetic acid] in this work. An IC50 of 0.568 µM was found for CCn1c(CCCc2ccc(-c3cccc(CC(=O)O)n3)cc2)nn(Cc2ccc(C(C)(C)C)cc2)c1=O [Example 50, 2-(6-{4-[3-(1-{[4-(tert-Butyl)phenyl]methyl}-4-ethyl-5-oxo-1,2,4-triazolin-3-yl)propyl]phenyl}-2-pyridyl) acetic acid] in this work. An IC50 of 0.292 µM was found for CCn1c(CCCc2ccc(-c3ccc(C(O)C(=O)NC4CC4)cc3)cc2)nn(Cc2ccc(C(C)(C)C)cc2)c1=O (stereo not shown) [Example 51, 2-(4′-(3-(1-(4-(tert-Butyl)benzyl)-4-ethyl-5-oxo-4,5-dihydro-1H-1,2,4-triazol-3-yl)propyl)-[1,1′-biphenyl]-4-yl)-N-cyclopropyl-2-hydroxyacetamide] in this work. An IC50 of 0.44 µM was found for CCn1c(CCCc2ccc(-c3ccc(C(=O)C(=O)NC4CC4)cc3)cc2)nn(Cc2ccc(C(C)(C)C)cc2)c1=O [Example 52, 2-(4′-(3-(1-(4-(tert-Butyl)benzyl)-4-ethyl-5-oxo-4,5-dihydro-1H-1,2,4-triazol-3-yl)propyl)-[1,1′-biphenyl]-4-yl)-N-cyclopropyl-2-oxoacetamide] in this work. An IC50 of 0.363 µM was found for CC(C)(C)c1ccc(Cn2nc(CCCc3ccc(-c4cccc(CC(=O)O)c4)cc3)n(CC3CC3)c2=O)cc1 [Example 53, 2-(4′-(3-(1-(4-(tert-Butyl)benzyl)-4-(cyclopropylmethyl)-5-oxo-4,5-dihydro-1H-1,2,4-triazol-3-yl)propyl)-[1,1′-biphenyl]-3-yl)acetic acid] in this work.
